Assays:
tubulin [1] = test: Inhibition of tubulin polymerization (assembly assay); type: biochemical; conditions: tubulin at 10 μM, read-out: Tubulin IC50 ± SD
Protocol: (§1) The assembly reaction mixtures contained 0.8 M monosodium glutamate (pH 6.6 with HCl in a 2 M stock solution), 10 μM tubulin, 4% (v/v) DMSO, and varying concentrations of the drug. Following a 15 min preincubation at 30 °C, samples were chilled on ice, GTP to 0.4 mM was added, and turbidity development was followed at 350 nm in a temperature-controlled recording spectrophotometer for 20 min at 30 °C. The extent of reaction was measured. Full experimental details were previously described.[63] For the colchicine binding assay, reaction mixtures contained 1.0 μM tubulin, 5.0 μM [^3H]colchicine, and 5.0 or 1.0 μM inhibitor and were incubated for 10 min at 37 °C. Complete details were described previously.[64]

[2] = tested on: MCF-7 human breast carcinoma cells; test: Inhibition of the growth of MCF-7 human breast carcinoma cells; type: cell-based; conditions: for IC50: Homo sapiens, MCF7, inhibition of cell growth, cells grown for 96 h, read-out: MCF-7 IC50 ± SD
Protocol: The methodology for the evaluation of the growth of human MCF-7 breast carcinoma cells was previously described, except that cells were grown for 96 h for IC50 determinations.[66] U-87 MG and OVCAR-3 proliferation assays were performed plating 10^4 cells/cm^2 in a Multiwell 24. The day after, cells were treated with compound 15, and DMSO was used as a control. Cells were counted 48 h later with a Bürker counting chamber, after dilution in TrypanBlue (#T6146 Sigma-Aldrich).

tubulin [3] = test: Inhibition of [3H]colchicine binding to tubulin; conditions: for Inhib. colch. binding 1-5-5 (% ± SD): inhibitor at 1:5:5 μM
Protocol: as §1

[4] = Metabolic stability in human liver microsomes; type: in vitro ADME; conditions: HLM 0.5 mg/mL, 1 μM, n = 2
Protocol: (§2) Mouse (Sigma Aldrich, CD-1 male, pooled) and human microsomes (Sigma Aldrich, human, pooled) at 0.5 mg/mL were preincubated with the test compound 15 dissolved in DMSO at 1 μM in phosphate buffer 50 mM, pH 7.4, and 3 mM MgCl2 for 10 min at 37 °C. The reaction was then started by adding the cofactor mixture solution (NADP, glucose-6-phosphate, glucose-6-phosphate dehydrogenase in 2% NaHCO3). Samples were taken at 0, 10, 30, 45, and 60 min and added to acetonitrile to stop the reaction. Samples were then centrifuged, and the supernatant was analyzed by LC–MS/MS to quantify the amount of the compound. A control sample without the cofactor was always added to check the chemical stability of the test compound. […] A fixed concentration of verapamil was added in every sample as an internal standard for LC–MS/MS analyses. The percentage of the area of the test compound remaining at the various incubation times was calculated with respect to the area of the compound at time 0 min.
(§3) The rate constant, k (min^–1), derived for the exponential decay equation (peak area/IS vs time), was used to calculate the rate of Cli.
(§4) Samples were analyzed under the following conditions: UPLC Waters coupled with an API 3200 triple-quadrupole (ABSciex); eluents, (phase A) 95% water, 5% acetonitrile + 0.1% HCOOH, (phase B) 5% water, 95% acetonitrile + 0.1% HCOOH; flow rate, 0.3 mL/min; column, Gemini-Nx 5 μm C18 110A (50 × 2.00 mm) at 35 °C; injection volume, 10 μL. Source conditions ESI positive: T 400 °C, Gas 1 30, Gas 2 35, CUR 30, IS 5500, CAD 5.

[5] = Metabolic stability in mouse liver microsomes; type: in vitro ADME; conditions: MLM 0.5 mg/mL, 1 μM, n = 2
Protocol: as §2, §3, §4

Structure (SMILES): COc1cc(C(=O)c2ccn(-c3ccccn3)c2)cc(OC)c1OC [Compound 2, (1-(Pyridin-2-yl)-1H-pyrrol-3-yl)(3,4,5-trimethoxyphenyl)methanone]
- IC50 (tubulin [1]): 480 ± 100 nM
- IC50 [2]: 1100 ± 300 nM
- Inhib. colch. binding 1-5-5 (% ± SD) (tubulin [3]): 83 ± 0.4%
- melting point: 120 to 125 °C

Structure (SMILES): COc1cc(C(=O)c2ccn(-c3cccnc3)c2)cc(OC)c1OC [Compound 3, (1-(Pyridin-3-yl)-1H-pyrrol-3-yl)(3,4,5-trimethoxyphenyl)methanone]
- IC50 (tubulin [1]): 1200 ± 100 nM
- IC50 [2]: 2500 ± 70 nM
- Inhib. colch. binding 1-5-5 (% ± SD) (tubulin [3]): 38 ± 3%

Structure (SMILES): COc1cc(C(=O)c2ccn(-c3ccncc3)c2)cc(OC)c1OC [Compound 4, (1-(Pyridin-4-yl)-1H-pyrrol-3-yl)(3,4,5-trimethoxyphenyl)methanone]
- IC50 (tubulin [1]): > 20000 nM
- IC50 [2]: 2500 ± 70 nM
- Inhib. colch. binding 1-5-5 (% ± SD) (tubulin [3]): 1.4 ± 5%

Structure (SMILES): COc1cc(C(=O)c2ccn(-c3ncccn3)c2)cc(OC)c1OC [Compound 5, (1-(Pyrimidin-2-yl)-1H-pyrrol-3-yl)(3,4,5-trimethoxyphenyl)methanone]
- IC50 (tubulin [1]): 490 ± 10 nM
- IC50 [2]: 220 nM
- Inhib. colch. binding 1-5-5 (% ± SD) (tubulin [3]): 82 ± 1%

Structure (SMILES): COc1cc(C(=O)c2cn(-c3ccccn3)cc2-c2ccccc2)cc(OC)c1OC [Compound 6, (4-Phenyl-1-(pyridin-2-yl)-1H-pyrrol-3-yl)(3,4,5-trimethoxyphenyl)methanone]
- IC50 (tubulin [1]): 430 ± 1 nM
- IC50 [2]: 18 ± 2 nM
- Inhib. colch. binding 1-5-5 (% ± SD) (tubulin [3]): 92 ± 0.5%
- melting point: 150 to 152 °C

Structure (SMILES): COc1cc(C(=O)c2cn(-c3cccnc3)cc2-c2ccccc2)cc(OC)c1OC [Compound 7, (4-Phenyl-1-(pyridin-3-yl)-1H-pyrrol-3-yl)(3,4,5-trimethoxyphenyl)methanone]
- IC50 (tubulin [1]): 740 ± 10 nM
- IC50 [2]: 50 ± 10 nM
- Inhib. colch. binding 1-5-5 (% ± SD) (tubulin [3]): 52 ± 5%
- melting point: 171 to 173 °C

Structure (SMILES): CCOc1ccc2ccc(=O)oc2c1 [Compound 7-EC, 7-ethoxycoumarin, reference compound]
- Cli ± SD [4]: 231.3 ± 37.5 μL/min/mg protein
- t1/2 ± SD [4]: 6.1 ± 1.0 min
- Cli ± SD [5]: 710.8 ± 1.2 μL/min/mg protein
- half-life at 1 h, 1 µM ([5]; male, CD-1, mouse, liver microsomes, pH 7.4, read-out: t1/2 ± SD): 2 ± 0.1 min

Structure (SMILES): COc1cc(C(=O)c2cn(-c3ccncc3)cc2-c2ccccc2)cc(OC)c1OC [Compound 8, (4-Phenyl-1-(pyridin-4-yl)-1H-pyrrol-3-yl)(3,4,5-trimethoxyphenyl)methanone]
- IC50 (tubulin [1]): 6700 ± 100 nM
- Inhibition of MCF-7 cell growth (in words) [2]: weak inhibitors
- IC50 [2]: 2700 ± 500 nM
- Inhib. colch. binding 1-5-5 (% ± SD) (tubulin [3]): 17 ± 4%

Structure (SMILES): COc1cc(C(=O)c2cn(-c3ccccn3)cc2-c2ccco2)cc(OC)c1OC [Compound 9, (4-(Furan-2-yl)-1-(pyridin-2-yl)-1H-pyrrol-3-yl)(3,4,5-trimethoxyphenyl)methanone]
- IC50 (tubulin [1]): 740 nM
- IC50 [2]: 18 ± 4 nM
- Inhibition of [3H]colchicine binding 1:5:1 (tubulin [3]; inhibitor at 1:5:1 μM, 1 µM): 69%
- Inhib. colch. binding 1-5-5 (% ± SD) (tubulin [3]): 95 ± 0.9%

Structure (SMILES): COc1cc(C(=O)c2cn(-c3cccnc3)cc2-c2ccco2)cc(OC)c1OC [Compound 10, (4-(Furan-2-yl)-1-(pyridin-3-yl)-1H-pyrrol-3-yl)(3,4,5-trimethoxyphenyl)methanone]
- IC50 (tubulin [1]): 1100 ± 20 nM
- IC50 [2]: 39 ± 2 nM
- Inhib. colch. binding 1-5-5 (% ± SD) (tubulin [3]): 77 ± 0.1%

Structure (SMILES): COc1cc(C(=O)c2cn(-c3ccncc3)cc2-c2ccco2)cc(OC)c1OC [Compound 11, (4-(Furan-2-yl)-1-(pyridin-4-yl)-1H-pyrrol-3-yl)(3,4,5-trimethoxyphenyl)methanone]
- IC50 (tubulin [1]): 3800 ± 700 nM
- Inhibition of MCF-7 cell growth (in words) [2]: weak inhibitors
- IC50 [2]: 500 ± 70 nM
- Inhib. colch. binding 1-5-5 (% ± SD) (tubulin [3]): 35 ± 3%

Structure (SMILES): COc1cc(C(=O)c2cn(-c3cnccn3)cc2-c2ccco2)cc(OC)c1OC [Compound 12, (4-(Furan-2-yl)-1-(pyrazin-2-yl)-1H-pyrrol-3-yl)(3,4,5-trimethoxyphenyl)methanone]
- IC50 (tubulin [1]): 910 ± 50 nM
- Inhibition of MCF-7 cell growth (in words) [2]: strong inhibition
- IC50 [2]: 29 ± 1 nM
- Inhib. colch. binding 1-5-5 (% ± SD) (tubulin [3]): 86 ± 2%

Structure (SMILES): COc1cc(C(=O)c2cn(-c3ncccn3)cc2-c2ccccc2)cc(OC)c1OC [Compound 13, (4-Phenyl-1-(pyrimidin-2-yl)-1H-pyrrol-3-yl)(3,4,5-trimethoxyphenyl)methanone]
- IC50 (tubulin [1]): 690 ± 100 nM
- Inhibition of MCF-7 cell growth (in words) [2]: strong inhibition
- IC50 [2]: 25 ± 8 nM
- Inhib. colch. binding 1-5-5 (% ± SD) (tubulin [3]): 88 ± 2%

Structure (SMILES): COc1cc(C(=O)c2cn(-c3cncnc3)cc2-c2ccccc2)cc(OC)c1OC [Compound 14, (4-Phenyl-1-(pyrimidin-5-yl)-1H-pyrrol-3-yl)(3,4,5-trimethoxyphenyl)methanone]
- IC50 (tubulin [1]): > 20000 nM
- Inhibition of MCF-7 cell growth (in words) [2]: poor inhibitors
- IC50 [2]: > 5000 nM
- Inhib. colch. binding 1-5-5 (% ± SD) (tubulin [3]): 4.7 ± 5%

Structure (SMILES): COc1cc(C(=O)c2cn(-c3cncnc3)cc2-c2ccco2)cc(OC)c1OC [Compound 16, (4-(Furan-2-yl)-1-(pyrimidin-5-yl)-1H-pyrrol-3-yl)(3,4,5-trimethoxyphenyl)methanone]
- IC50 (tubulin [1]): 6700 ± 900 nM
- Inhibition of MCF-7 cell growth (in words) [2]: poor inhibitors
- IC50 [2]: 580 ± 30 nM
- Inhib. colch. binding 1-5-5 (% ± SD) (tubulin [3]): 19 ± 2%

From paper PMC9743090, “Induction of Ferroptosis in Glioblastoma and Ovarian Cancers by a New Pyrrole Tubulin Assembly Inhibitor” (Journal of Medicinal Chemistry, 2022)
